# Results published in patent US20240368174A1, “Antiviral Heterocyclic Compounds” (Enanta Pharmaceuticals, Inc., priority 2023, published 2024).
# Tested on: HMPV clinical isolate A2 strain TN 94-49
# Assay: HMPV antiviral assay, Method 2 (LLC-MK2 cells with CP-100-356, ATP-Lite)
# Format: cell-based
# Details: human metapneumovirus
# Procedure: In vitro HMPV antiviral activity was evaluated using the clinical isolate A2 strain TN 94-49 (obtained from Dr. John Williams, Vanderbilt University, Tennessee) and LLC-MK2 cells (Millipore Sigma CB_85062804), an immortalized kidney epithelial cell line from Macaca mulatta. Compounds were resuspended in dimethyl sulfoxide (DMSO) at 10 mM, serially diluted and added to a 384-well source plate. Subsequently, the compounds were diluted and transferred onto 384-well assay plates using the Echo-650 automated liquid handling system (Beckman Coulter, Indiana). The test compounds were assessed in duplicate at a top concentration of 200 nM followed by 2.5-fold serial dilutions to give a total of 10 concentration points. DMSO control wells were also included on the assay plates and were either infected or not, acting as positive and negative controls. A2 TN 94-49 virus infections were performed in-suspension with LLC-MK2 cells. The cells were washed twice with PBS and removed from the cell-culture flask with 0.25% trypsin-EDTA (Thermo Fisher Scientific, MA). The trypsin-EDTA was inactivated by resuspending in 2% fetal bovine serum (FBS) and OptiMEM (ThermoFisher Scientific, MA) containing 1% antibiotic-antimycotic. Cells were pelleted by centrifuging for 5 minutes at 800 rpm, the supernatant was removed, and cells were re-suspended and washed in PBS plus 100 μg/mL CaCl2). This step was performed twice. Cells were then re-suspended in serum-free (SF)-OptiMEM containing 4 μg/mL TPCK-Trypsin (Sigma Aldrich, MO), 1% antibiotic-antimycotic (ThermoFisher Scientific, MA), 100 μg/mL CaCl2), and 4 μM of CP-100-356, a P-glycoprotein inhibitor. Cells were counted and seeded at a density of 5,000 cells/well, 12.5 μL/well. Virus infections were done at a multiplicity of infection (MOI) of 0.16 with 12.5 μL added per well. Virus infections were performed in infection media which contained SF-OptiMEM, 100 μg/mL CaCl2) and 1% antibiotic-antimycotic. HMPV viral stocks are suspended in infection media+5% glycerol, thus an equal volume of infection media+5% glycerol was added to uninfected wells to equalize the final % glycerol across all wells of the assay plate. The final concentration of TPCK-trypsin was 2 μg/mL. The final concentration of CP-100-356 was 2 μM. The assay plates were incubated at 37° C., 5% CO2 for 7 days. After 7 days incubation, 12.5 μL of ATP-Lite (PerkinElmer, MA) was added to each well and the raw luminescence values were determined using the Envision 2104 (Perkin Elmer, MA). The average of the raw luminescence values for the cells and virus only positive control wells was subtracted from all conditions tested and the percent cell health was determined by dividing these values by the average of the cells only negative control wells. EC50 values were then calculated by non-linear regression using a four-parameter curve logistic equation. The curve fit model employed was XLFit Dose Response One Site Model 200: y=(A+(B/(1+((x/C)^D)))), where A is the minimum y value, B is the maximum y value, C is the log EC50 value, and D is the slope factor.
# [1] = 168 h, hMPV A2 TN/94-49, LLC-MK2 cells with 4 μM CP-100-356, 7 days, ATP-Lite
# [2] = hMPV A2 TN/94-49, LLC-MK2 cells with CP-100-356, Method 2
SMILES,EC50 [1] [nM],EC50 [2] [nM]
COc1cc(C(=O)NC[C@](O)(c2cc3c(c(-c4ccnc(C5CCOCC5)c4Cl)n2)OC[C@]3(C)C(N)=O)C2CC2)cc2cn(C3(F)CC3)nc12 [Example 905],> 200,–
COc1cc(C(=O)NC[C@](O)(c2cc3c(c(-c4ccnc(C)c4Cl)n2)OC[C@]3(C)C(N)=O)C2(F)CC2)cc2sc(C)nc12 [Example 530],–,> 200
COc1cc(C(=O)NC[C@](O)(c2cc3c(c(-c4ccnc(F)c4F)n2)OC[C@]3(C)C(N)=O)C2CC2)cc2cn(C3CC3)nc12 [Example 381],–,< 200
COc1cc(C(=O)NC[C@](O)(c2cc3c(c(-c4cc(C(F)F)c(F)cc4F)n2)OC[C@]3(C)C(N)=O)C(F)(F)F)cc2cn(C3CC3)nc12 [Example 396],–,< 200
COc1cc(C(=O)NC[C@@](O)(c2ccccc2)c2cc3c(c(-c4cc(Cl)c(F)cc4F)n2)OC[C@]3(C)C(N)=O)cc2oc(N)nc12 [Example 237],–,< 200
COc1cc(C(=O)NC[C@](O)(c2cc3c(c(-n4ncc5c(F)cccc54)n2)OC[C@]3(C)C(N)=O)C2CC2)cc2cc(C3CC3)nn12 [Example 626],< 200,–
Cc1nc2c(OC3CC3)cc(C(=O)NC[C@@](O)(c3ccccc3)c3cc4c(c(-c5cc(Cl)c(F)cc5F)n3)OC[C@]4(C)C(N)=O)cc2o1 [Example 234],–,< 200
COc1cc(C(=O)NCC(O)(c2ccccc2)c2cc3c(c(-c4ccc(F)c(Cl)c4)n2)OC[C@]3(C)C(N)=O)cc2cn(C3(F)CC3)nc12 (stereo partly drawn) [Example 362],–,< 200
COc1cc(C(=O)NC[C@@](O)(c2ccccc2)c2cc3c(c(-c4ccnc(C)c4Cl)n2)OC[C@]3(C)C(N)=O)cc2cn(C(F)F)nc12 [Example 694],< 200,–
COc1cc(C(=O)NC[C@@](O)(c2cccc(F)c2)c2cc3c(c(-c4cccc(Cl)c4Cl)n2)OC[C@]3(C)C(N)=O)cc2cc(Cl)cnc12 [Example 333],–,< 200
COc1cc(C(=O)NC[C@](O)(c2cc3c(c(-c4c(C)cncc4F)n2)OC[C@]3(C)C(N)=O)C2CC2)cc2cn(C3CC3)nc12 [Example 435],–,< 200
COc1cc(C(=O)NC[C@@](O)(c2ccccc2)c2cc3c(c(-c4cccc5c4OCO5)n2)OC[C@]3(C)C(N)=O)cc2cn(C3(F)CC3)nc12 [Example 366],–,> 200
COc1cc(C(=O)NC[C@@](O)(c2cccc(Cl)n2)c2cc3c(c(-c4cc(Cl)c(F)cc4F)n2)OC[C@]3(C)C(N)=O)cc2cn(C3CC3)nc12 [Example 489],–,< 200
COc1cc(C(=O)NC[C@@](O)(c2ccccc2)c2cc3c(c(-c4ccnc(C(F)F)c4Cl)n2)OC[C@]3(C)C(N)=O)cc2cn(C3CC3)nc12 [Example 562],–,< 200
COc1cc(C(=O)NC[C@@](O)(c2ccccc2)c2cc3c(c(-c4cccc(Cl)c4F)n2)OC[C@]3(C)C(N)=O)cc2cn(C3(F)CC3)nc12 [Example 369],–,< 200
COc1cc(C(=O)NC[C@@](O)(c2cccc(F)c2)c2cc3c(c(-c4ccc5c(c4Cl)OC(F)(F)O5)n2)OC[C@]3(C)C(N)=O)cc2oc(C3CC3)nc12 [Example 286],–,< 200
COc1nccc(-c2nc([C@@](O)(CNC(=O)c3cc(OC)c4nc(C5CC5)oc4c3)c3cccc(F)c3)cc3c2OC[C@]3(C)C(N)=O)c1Cl [Example 560],–,< 200
COc1nccc(-c2nc([C@@](O)(CNC(=O)c3cc(OC)c4nn(C5(F)CC5)cc4c3)C3CC(F)(F)C3)cc3c2OC[C@]3(C)C(N)=O)c1Cl [Example 896],< 200,–
COc1nccc(-c2nc([C@@](O)(CNC(=O)c3cc(OC)c4nc(C5CC5)oc4c3)c3ccc(F)cc3)cc3c2OC[C@]3(C)C(N)=O)c1Cl [Example 699],< 200,–
COc1cc(C(=O)NC[C@@](O)(c2cnc(C3CC3)nc2)c2cc3c(c(-c4cc(Cl)c(F)cc4F)n2)OC[C@]3(C)C(N)=O)cc2cn(C3CC3)nc12 [Example 478],–,< 200
COc1cc(C(=O)NC[C@@](O)(c2ccnc(N)c2)c2cc3c(c(-c4cc(Cl)c(F)cc4F)n2)OC[C@]3(C)C(N)=O)cc2cn(C3CC3)nc12 [Example 484],–,< 200
COc1cc(C(=O)NC[C@@](O)(c2ccccc2)c2cc3c(c(-c4ccnc(F)c4Cl)n2)OC[C@]3(C)C(N)=O)cn2cc(C3CC3)nc12 [Example 359],–,< 200
COc1cc(C(=O)NC[C@@](O)(c2ccccc2)c2cc3c(c(-c4cc(F)c(F)cc4F)n2)OC[C@]3(C)C(N)=O)cc2oc(C)nc12 [Example 193],–,< 200
Cc1nccc(-c2nc([C@@](O)(CNC(=O)c3cc(OC4CC4)c4nn(C5CC5)cc4c3)c3cccc(F)c3)cc3c2OC[C@]3(C)C(N)=O)c1Cl [Example 603],–,< 200
COc1cc(C(=O)NC[C@](O)(c2cc3c(c(-n4ccc5ccccc54)n2)OC[C@]3(C)C(N)=O)C(F)(F)F)cc2cn(C(F)F)nc12 [Example 843],< 200,–
C[C@]1(C(N)=O)COc2c1cc([C@@](O)(CNC(=O)c1ccc3nc(C4(F)CC4)oc3c1)c1ccccc1)nc2-c1cc(Cl)c(F)cc1F [Example 219],–,< 200

# Results, then the compound that gave them:
EC50 [1] [nM],EC50 [2] [nM],SMILES
–,< 200,[2H]C([2H])([2H])NC(=O)[C@@]1(C)COc2c1cc([C@@](O)(CNC(=O)c1cc(OC)c3nc(C4CC4)oc3c1)c1ccccc1)nc2-c1cc(Cl)c(F)cc1F [Example 110]
< 200,–,COc1cc(-c2nc([C@@](O)(CNC(=O)c3cc(OC)c4nc(C5CC5)oc4c3)c3ccccc3)cc3c2OC[C@]3(C)C(N)=O)c(F)cn1 [Example 638]
< 200,–,C[C@]1(C(N)=O)COc2c1cc([C@@](O)(CNC(=O)c1cc(OC3CC3)c3nn(C(F)F)cc3c1)C1CC1)nc2-n1ncc2c(F)cccc21 [Example 652]
< 200,–,COc1nccc(-c2nc([C@@](O)(CNC(=O)c3cc(OC)n4nc(C5CC5)cc4c3)C3(F)CC3)cc3c2OC[C@]3(C)C(N)=O)c1Cl [Example 656]
–,< 200,COc1cc(C(=O)NC[C@@](O)(c2ccccc2)c2cc3c(c(-c4cc(C(F)(F)F)c(F)cc4F)n2)OC[C@]3(C)C(N)=O)cc2cn(C3CC3)nc12 [Example 302]
< 200,–,COc1nccc(-c2nc([C@@](O)(CNC(=O)c3cc(OC)c4nn(C5CC5)cc4c3)C3CC3)cc3c2OC[C@]3(C)C(N)=O)c1F [Example 802]
–,> 200,COc1cc(C(=O)NC[C@](O)(c2cc3c(c(-c4ccnc(C)c4Cl)n2)OC[C@]3(C)C(N)=O)C2(F)CC2)cn2cc(C3(F)CC3)nc12 [Example 528]
–,< 200,COc1nccc(-c2nc([C@@](O)(CNC(=O)c3cc(OC)c4nn(C(F)F)cc4c3)c3ccccc3)cc3c2OC[C@]3(C)C(N)=O)c1Cl [Example 554]
–,< 200,COc1cc(C(=O)NC[C@@](O)(c2cccc(F)c2)c2cc3c(c(-c4cccc(Cl)c4Cl)n2)OC[C@]3(C)C(N)=O)cc2cc(C3CC3)nn12 [Example 336]
–,< 200,COc1cc(C(=O)NC[C@@](O)(c2ccccc2)c2cc3c(c(-c4ccc5c(c4)OC(F)(F)O5)n2)OC[C@]3(C)C(N)=O)cc2oc(C3CC3)nc12 [Example 200]
–,< 200,COc1cc(C(=O)NC[C@@](O)(c2ccccc2)c2cc3c(c(-c4cc(Cl)ccc4F)n2)OC[C@]3(C)C(N)=O)cc2oc(C3CC3)nc12 [Example 331]
> 200,–,COc1cccc2c1cnn2-c1nc([C@@](O)(CNC(=O)c2cc(OC)c3nn(C4CC4)cc3c2)C2CC2)cc2c1OC[C@]2(C)C(N)=O [Example 833]
–,< 200,C[C@]1(C(N)=O)COc2c1cc([C@@](O)(CNC(=O)c1cc(OC3CC3)c3nn(C(F)F)cc3c1)C(F)(F)F)nc2-c1ccnc(C(F)(F)F)c1Cl [Example 594]
< 200,–,C[C@]1(C(N)=O)COc2c1cc([C@@](O)(CNC(=O)c1cc(OC3CC3)c3nn(C4CC4)cc3c1)C1CC1)nc2-n1ncc2c(F)cccc21 [Example 650]
–,< 200,COc1cc(C(=O)NC[C@@](O)(c2ccc(F)cc2)c2cc3c(c(-c4ccnc(C(F)(F)F)c4F)n2)OC[C@]3(C)C(N)=O)cc2cn(C3(F)CC3)nc12 [Example 573]
< 200,–,COc1cc(C(=O)NC[C@](O)(c2cc3c(c(-c4ccnc(C(F)(F)F)c4)n2)OC[C@]3(C)C(N)=O)C2CC2)cc2oc(C3CC3)nc12 [Example 763]
